Reference: paper PMC10700596 (Nature Communications, 2023)
Where “and” joins values, the source holds several entries; their conditions need not be identical. Equal values may be shown once. Read-outs that look alike come from different tables or passages of the source.

Tests used:
[1] = in vivo; type: in vivo, mice; conditions: plasma, mice, plasma; for Final plasma concentration, individual sample: IP 10 mg/kg, single animal, D=1
[2] = target: T1, EP4R (Homo sapiens, UniProt P35408); assay: PRESTO-Tango β-arrestin2 recruitment assay; type: cell-based
T1 construct: Tango fusion cassette (only 'tango' is printed); expressed in transfected cells; host or cells: HTLA cells (tTA-dependent luciferase reporter, β-arrestin2-TEV fusion)
T1 sequence (P35408 whole entry, the tested form may be a part): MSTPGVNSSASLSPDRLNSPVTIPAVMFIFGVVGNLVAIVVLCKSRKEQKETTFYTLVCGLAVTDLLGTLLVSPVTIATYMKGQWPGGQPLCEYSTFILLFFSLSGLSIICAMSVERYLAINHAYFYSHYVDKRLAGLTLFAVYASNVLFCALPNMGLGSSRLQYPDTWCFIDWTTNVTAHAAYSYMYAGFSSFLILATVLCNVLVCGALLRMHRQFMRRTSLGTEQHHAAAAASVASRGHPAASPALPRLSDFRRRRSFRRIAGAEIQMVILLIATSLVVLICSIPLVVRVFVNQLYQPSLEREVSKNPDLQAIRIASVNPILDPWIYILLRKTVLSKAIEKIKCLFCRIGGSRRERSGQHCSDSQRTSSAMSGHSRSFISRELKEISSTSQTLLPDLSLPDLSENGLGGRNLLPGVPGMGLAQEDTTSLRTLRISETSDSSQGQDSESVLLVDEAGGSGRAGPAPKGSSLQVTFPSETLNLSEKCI

Structure (SMILES): O=C([O-])C1CCC2(CC1)CC(Nc1ncnc3[nH]c4c(F)cccc4c13)C2.[Na+] (centres unmarked) [Compound 77, [Na+].[O-]C(=O)C1CCC2(CC(C2)NC=3N=CN=C4NC=5C(F)=CC=CC5C34)CC1]
- concentration at 30 min ([1]; male, CD-1, mouse, po, 30 mg/kg, PO 30 mg/kg, 30 min, read-out: Plasma concentration C (mean)): 21700 ng/mL
- concentration at 60 min ([1]; male, CD-1, mouse, po, 30 mg/kg, PO 30 mg/kg, 60 min, single animals, read-out: Plasma concentration, Final (individual mouse)): 24400 ng/mL
- concentration at 60 min ([1]; male, CD-1, mouse, po, 30 mg/kg, PO 30 mg/kg, 60 min, read-out: Plasma concentration C (mean)): 19600 ng/mL
- concentration at 120 min ([1]; male, CD-1, mouse, po, 30 mg/kg, PO 30 mg/kg, 120 min, single animals, read-out: Plasma concentration, Final (individual mouse)): 11600 ng/mL
- concentration at 120 min ([1]; male, CD-1, mouse, po, 30 mg/kg, PO 30 mg/kg, 120 min, read-out: Plasma concentration C (mean)): 9140 ng/mL
- concentration at 240 min ([1]; male, CD-1, mouse, po, 30 mg/kg, PO 30 mg/kg, 240 min, single animals, read-out: Plasma concentration, Final (individual mouse)): 5200 ng/mL
- concentration at 240 min ([1]; male, CD-1, mouse, po, 30 mg/kg, PO 30 mg/kg, 240 min, read-out: Plasma concentration C (mean)): 3600 ng/mL
- concentration at 360 min ([1]; male, CD-1, mouse, po, 30 mg/kg, PO 30 mg/kg, 360 min, single animals, read-out: Plasma concentration, Final (individual mouse)): 4400 ng/mL
- concentration at 360 min ([1]; male, CD-1, mouse, po, 30 mg/kg, PO 30 mg/kg, 360 min, read-out: Plasma concentration C (mean)): 4510 ng/mL
- concentration at 480 min ([1]; male, CD-1, mouse, po, 30 mg/kg, PO 30 mg/kg, 480 min, read-out: Plasma concentration C (mean)): 5240 ng/mL
- concentration at 1440 min ([1]; male, CD-1, mouse, po, 30 mg/kg, PO 30 mg/kg, 1440 min, read-out: Plasma concentration C (mean)): 187 ng/mL
- AUC ([1]; male, CD-1, mouse, po, 30 mg/kg p.o., read-out: AUC (converted)): 108 µg·h/mL
- Final plasma concentration, individual sample ([1]; 5 min, listed as Z5090949977, 10 mg/kg): 2415 ng/mL and 2458 ng/mL
- Final plasma concentration, individual sample ([1]; 15 min, listed as Z5090949977, 10 mg/kg): 7952 ng/mL and 6935 ng/mL
- Final plasma concentration, individual sample ([1]; 30 min, listed as Z5090949977, 10 mg/kg): 4477 ng/mL and 7535 ng/mL
- Final plasma concentration, individual sample ([1]; 60 min, listed as Z5090949977, 10 mg/kg): 9306 ng/mL and 9568 ng/mL
- Final plasma concentration, individual sample ([1]; 120 min, listed as Z5090949977, 10 mg/kg): 9975 ng/mL and 654 ng/mL and 8498 ng/mL
- Final plasma concentration, individual sample ([1]; 240 min, listed as Z5090949977, 10 mg/kg): 3566 ng/mL and 4977 ng/mL and 2222 ng/mL
- Final plasma concentration, individual sample ([1]; 360 min, listed as Z5090949977, 10 mg/kg): 2567 ng/mL and 1708 ng/mL
- Final plasma concentration, individual sample ([1]; 480 min, listed as Z5090949977, 10 mg/kg): 872 ng/mL and 500 ng/mL
- Final plasma concentration, individual sample ([1]; 1440 min, listed as Z5090949977, 10 mg/kg): 13.6 ng/mL and 18.4 ng/mL
- Plasma concentration, Final (individual mouse) ([1]; IV 10 mg/kg, 5 min, single animals, listed as Z5090949977, 10 mg/kg): 28260 ng/mL and 26240 ng/mL
- Plasma concentration, Final (individual mouse) ([1]; IV 10 mg/kg, 15 min, single animals, listed as Z5090949977, 10 mg/kg): 16140 ng/mL and 20380 ng/mL
- Plasma concentration, Final (individual mouse) ([1]; IV 10 mg/kg, 30 min, single animals, listed as Z5090949977, 10 mg/kg): 14230 ng/mL and 12830 ng/mL
- Plasma concentration, Final (individual mouse) ([1]; IV 10 mg/kg, 60 min, single animals, listed as Z5090949977, 10 mg/kg): 8422 ng/mL and 12040 ng/mL
- Plasma concentration, Final (individual mouse) ([1]; IV 10 mg/kg, 120 min, single animals, listed as Z5090949977, 10 mg/kg): 4081 ng/mL and 3418 ng/mL
- Plasma concentration, Final (individual mouse) ([1]; IV 10 mg/kg, 240 min, single animals, listed as Z5090949977, 10 mg/kg): 2055 ng/mL and 1818 ng/mL
- Plasma concentration, Final (individual mouse) ([1]; IV 10 mg/kg, 360 min, single animals, listed as Z5090949977, 10 mg/kg): 2041 ng/mL and 1884 ng/mL
- Plasma concentration, Final (individual mouse) ([1]; IV 10 mg/kg, 480 min, single animals, listed as Z5090949977, 10 mg/kg): 829 ng/mL and 1219 ng/mL and 1675 ng/mL
- Plasma concentration, Final (individual mouse) ([1]; IV 10 mg/kg, 1440 min, single animals, listed as Z5090949977, 10 mg/kg): 31.5 ng/mL and 13.7 ng/mL and 84.5 ng/mL
- Plasma concentration, Final (individual mouse) ([1]; PO 30 mg/kg, 5 min, single animals, listed as Z5090949977, 30 mg/kg): 2091 ng/mL and 7833 ng/mL and 3112 ng/mL
- Plasma concentration, Final (individual mouse) ([1]; PO 30 mg/kg, 15 min, single animals, listed as Z5090949977, 30 mg/kg): 23680 ng/mL and 31270 ng/mL
- Plasma concentration, Final (individual mouse) ([1]; PO 30 mg/kg, 30 min, single animals, listed as Z5090949977, 30 mg/kg): 18100 ng/mL and 24020 ng/mL
- Plasma concentration, Final (individual mouse) ([1]; PO 30 mg/kg, 60 min, single animals, listed as Z5090949977, 30 mg/kg): 14280 ng/mL and 20060 ng/mL
- Plasma concentration, Final (individual mouse) ([1]; PO 30 mg/kg, 120 min, single animals, listed as Z5090949977, 30 mg/kg): 8277 ng/mL and 7588 ng/mL
- Plasma concentration, Final (individual mouse) ([1]; PO 30 mg/kg, 240 min, single animals, listed as Z5090949977, 30 mg/kg): 2686 ng/mL and 2897 ng/mL
- Plasma concentration, Final (individual mouse) ([1]; PO 30 mg/kg, 360 min, single animals, listed as Z5090949977, 30 mg/kg): 3917 ng/mL and 5212 ng/mL
- Plasma concentration, Final (individual mouse) ([1]; PO 30 mg/kg, 480 min, single animals, listed as Z5090949977, 30 mg/kg): 8465 ng/mL and 5117 ng/mL and 2129 ng/mL
- Plasma concentration, Final (individual mouse) ([1]; PO 30 mg/kg, 1440 min, single animals, listed as Z5090949977, 30 mg/kg): 154 ng/mL and 78.9 ng/mL and 329 ng/mL
- IC50 ([2]; PRESTO-Tango IC50 (nM)): 232 nM
- Ki ([2]; calculated using the Cheng Prusoff equation, read-out: PRESTO-Tango Ki*): 46 nM
